# Assay results as given in patent US20210009950A1, “ANGIOGENESIS-INDUCING METHOD USING NEURAL STEM CELL” (MEDINNO INC., priority 2018, published 2021).
# Key:
# [1] = system: MCP-1; type: cell-based, human
# [2] = system: Groα; type: cell-based, human
structure (smiles),measurement,setting,value
[Cl-].[Cl-].[Co+2] [CoCl2],amount of MCP-1 at 24 hours after CoCl2 treatment,[1],increased in proportion to the concentration
same,amount of MCP-1 at CoCl2 300 μM or more compared to 100 and 200 μM,[1],reduced
same,"expression level of MCP-1, another 24 hours after medium replaced with DMEM/F12",[1],highest in the case of treatment of 100 μM CoCl2
same,expression of MCP-1,[1],increased
same,amount of Groα at 24 hours after CoCl2 treatment,[2],increased in a concentration-dependent manner
same,amount of Groα at CoCl2 200 μM or more compared to 100 μM,[2],reduced
same,"amount of Groα, another 24 hours after medium replaced with DMEM/F12",[2],highest when 100 μM CoCl2 was treated
same,expression of Gro,[2],increased
same,CoCl2 concentration giving highest Groα at 24 hours after treatment,[2]; 24 hours,500 µM
